Laboratory results published in BindingDB's records for patent US11839613 (Idorsia Pharmaceuticals, 2023).

How the values were obtained:
[1] = biological target: Prostaglandin E2 receptor EP2 subtype (Homo sapiens, UniProt P43116); assay: hEP2 cAMP Assay
Experimental: Cells are counted washed and resuspended in assay buffer (AB; HBSS, 20 mM HEPES, 0.2% BSA; 2 mM IBMX). […] Plate is pre-incubated 45 minutes at RT. […] Plate is incubated 30 minutes at RT.

[2] = biological target: Prostaglandin E2 receptor EP4 subtype (Homo sapiens, UniProt P35408); assay: hEP4 cAMP Assay
Chain of Prostaglandin E2 receptor EP4 subtype (P35408 whole entry): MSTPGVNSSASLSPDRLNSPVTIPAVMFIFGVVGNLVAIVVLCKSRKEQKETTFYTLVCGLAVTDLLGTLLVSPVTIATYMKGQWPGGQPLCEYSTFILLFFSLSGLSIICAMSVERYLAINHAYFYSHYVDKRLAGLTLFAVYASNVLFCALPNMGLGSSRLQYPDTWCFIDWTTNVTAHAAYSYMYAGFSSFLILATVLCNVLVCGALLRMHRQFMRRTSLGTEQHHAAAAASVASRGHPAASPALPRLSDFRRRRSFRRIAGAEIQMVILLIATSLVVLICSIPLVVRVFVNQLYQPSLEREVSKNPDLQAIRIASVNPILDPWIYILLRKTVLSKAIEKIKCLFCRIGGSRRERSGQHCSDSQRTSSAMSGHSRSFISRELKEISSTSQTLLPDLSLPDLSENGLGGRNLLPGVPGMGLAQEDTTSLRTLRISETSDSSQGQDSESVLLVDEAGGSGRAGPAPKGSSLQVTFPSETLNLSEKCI
Experimental: Cells are counted washed and resuspended in assay buffer (AB; HBSS, 20 mM HEPES, 0.2% BSA; 2 mM IBMX). […] Plate is pre-incubated 45 minutes at RT. Subsequently, 2.5 microliters of PGE2 (final conc. 6 nM) are transferred into the assay plate. Plate is incubated 30 minutes at RT. […] For each compound concentration the percentage of cAMP compared to DMSO control value as average ±STDEV (each concentration is measured in duplicate) is calculated.

Chain of Prostaglandin E2 receptor EP2 subtype (P43116 whole entry): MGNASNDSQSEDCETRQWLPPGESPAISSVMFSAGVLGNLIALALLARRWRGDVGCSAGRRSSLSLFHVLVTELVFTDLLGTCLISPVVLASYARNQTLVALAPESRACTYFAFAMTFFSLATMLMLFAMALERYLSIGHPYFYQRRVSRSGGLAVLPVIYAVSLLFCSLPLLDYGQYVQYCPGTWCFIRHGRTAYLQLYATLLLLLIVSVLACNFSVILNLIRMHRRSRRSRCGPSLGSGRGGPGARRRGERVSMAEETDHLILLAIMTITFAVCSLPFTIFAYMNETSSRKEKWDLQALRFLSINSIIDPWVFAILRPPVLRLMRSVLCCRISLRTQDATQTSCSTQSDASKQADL

Compound	IC50 [1]	IC50 [2]
C#Cc1cc2c(cc1CCNc1cc(-c3ccc(CC(=O)O)c(CCC)c3)ncn1)OCCO2 [US11839613, Example 440]	25 nM	65 nM
CCOc1cc(-c2cc(NCCc3c(OC)cc4ccccc4c3C)ncn2)cc(F)c1CC(=O)O [US11839613, Example 374]	304 nM	45 nM
COc1cc(-c2cc(NCCc3cc(F)c4sccc4c3)ncn2)ccc1OCCC(=O)O [US11839613, Example 438]	708 nM	29 nM
CCOc1cc(-c2cc(NCCc3cc(F)c4sccc4c3)ncn2)ccc1C(=O)O [US11839613, Example 361]	270 nM	68 nM
O=C(O)c1ccc(-c2cc(NCCc3cc(F)c4sccc4c3)ncn2)cc1OC1CC1 [US11839613, Example 449]	131 nM	21 nM
COc1cc2sccc2cc1CCNc1cc(-c2ccc(CC(=O)O)c(OC)c2)ncn1 [US11839613, Example 381]	165 nM	119 nM
CCOc1cc(-c2cc(NCCc3c(OC)cc4c(c3C)OCCO4)ncn2)ccc1CC(=O)O [US11839613, Example 399]	40 nM	48 nM
CCOc1cc(-c2cc(NCCc3cc4ccsc4cc3OC)ncn2)cc(F)c1CC(=O)O [US11839613, Example 371]	48 nM	68 nM
CSc1cc(-c2cc(NCCc3cc(F)c4sccc4c3)ncn2)ccc1C(=O)O [US11839613, Example 364]	37 nM	18 nM
CCCc1cc(-c2cc(NCCc3cc(F)c4sccc4c3)ncn2)ccc1C(=O)O [US11839613, Example 389]	231 nM	57 nM

The remaining compounds from weak to strong by IC50 [1], led by results:

IC50 [1]	IC50 [2]	Compound
782 nM	89 nM	CC(C)Oc1cc(-c2cc(NCCc3ccc4sccc4c3F)ncn2)ccc1CC(=O)O [US11839613, Example 424]
675 nM	222 nM	COc1cc(-c2cc(NCCc3ccc4sccc4c3F)ncn2)ccc1CC(=O)O [US11839613, Example 382]
534 nM	35 nM	CCOc1cc(-c2cc(NCCc3cc(F)c4sccc4c3)ncn2)ccc1CC(=O)O [US11839613, Example 363]
185 nM	40 nM	O=C(O)c1ccc(-c2cc(NCCc3ccc4scc(Cl)c4c3)ncn2)cc1OC1CCC1 [US11839613, Example 430]
126 nM	20 nM	CCCc1cc(-c2cc(NCCc3c(OC)cc4c(c3F)OCCO4)ncn2)ccc1CC(=O)O [US11839613, Example 408]
66 nM	38 nM	CSc1cc(-c2cc(NCCc3ccc4scc(Cl)c4c3)ncn2)ccc1C(=O)O [US11839613, Example 429]
31 nM	240 nM	CCOc1cc2c(cc1CCNc1cc(-c3ccc(C(=O)O)c(CC(C)C)c3)ncn1)OCCO2 [US11839613, Example 417]
27 nM	71 nM	CCOc1cc(-c2cc(NCCc3cc4ccsc4c(F)c3OC)ncn2)ccc1C(=O)O [US11839613, Example 404]
27 nM	92 nM	CCCc1cc(-c2cc(NCCc3cc4ccsc4cc3OC)ncn2)ccc1C(=O)O [US11839613, Example 377]
7 nM	18 nM	COc1c(CCNc2cc(-c3ccc(C(=O)O)c(SC)c3)ncn2)cc2ccsc2c1F [US11839613, Example 405]
